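Grown in 96-well plates, cells were treated for 48 hours with each compound at five concentrations. Insufficient inhibition: endpoint recorded as highest concentration tested. GI50: concentration for 50% inhibition of growth. TGI marks complete inhibition of growth.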
What was measured:
Test in all cases: DTP human tumour cell line panel, 48 h
UACC-62 melanoma = system: UACC-62 melanoma
OVCAR-3 ovarian = system: OVCAR-3 ovarian
DU-145 prostate = system: DU-145 prostate
SW-620 colon = system: SW-620 colon
SF-268 CNS = system: SF-268 CNS
OVCAR-4 ovarian = system: OVCAR-4 ovarian
NCI-H522 lung = system: NCI-H522 lung
SN12C renal = system: SN12C renal
BT-549 breast = system: BT-549 breast
T-47D breast = system: T-47D breast

With Cc1cccc2c1Oc1ccccc1C2NC(=O)c1ccc([N+](=O)[O-])cc1 (centres undefined) the TGI (UACC-62 melanoma) was over 100 µM, the TGI (OVCAR-3 ovarian) was over 100 µM and the TGI (DU-145 prostate) was over 100 µM. For the same compound, the TGI (SW-620 colon) was over 100 µM, the TGI (SF-268 CNS) was over 100 µM and the TGI (OVCAR-4 ovarian) was over 100 µM. The TGI (NCI-H522 lung) was over 100 µM, the TGI (SN12C renal) was 91 µM and the TGI (BT-549 breast) was over 100 µM. For the same compound, the TGI (T-47D breast) was over 100 µM.
Work on CC1=C2C(=O)[C@H]3[C@@H](CC=C4C[C@@H](O)CC[C@@]43C)[C@@H]2CC[C@]12O[C@@H]1C[C@H](C)CN[C@H]1[C@H]2C yielded a TGI (UACC-62 melanoma) of over 92.3 µM, a TGI (OVCAR-3 ovarian) of over 56 µM and a TGI (DU-145 prostate) of over 100 µM. It also gave a TGI (SW-620 colon) of over 79.9 µM, a TGI (SF-268 CNS) of over 66.7 µM and a TGI (OVCAR-4 ovarian) of over 64.5 µM. The TGI (NCI-H522 lung) was over 59.6 µM, the TGI (SN12C renal) was over 60.6 µM and the TGI (BT-549 breast) was over 100 µM. It also gave a TGI (T-47D breast) of over 100 µM.
COc1nc(SC)nc2c1cnn2C1OC(C(O)CO)C(OC)C1O (centres undefined) showed a TGI (UACC-62 melanoma) of over 100 µM, a TGI (OVCAR-3 ovarian) of over 100 µM and a TGI (SW-620 colon) of over 100 µM. The TGI (SF-268 CNS) was over 100 µM, the TGI (OVCAR-4 ovarian) was over 100 µM and the TGI (NCI-H522 lung) was over 100 µM. The TGI (SN12C renal) was over 100 µM.
CCCCC(C)C1CCC2(C)C=CC(=O)C(C)=C2C1O (centres undefined) was tested, and the TGI (UACC-62 melanoma) was over 100 µM, the TGI (OVCAR-3 ovarian) was over 100 µM and the TGI (SW-620 colon) was over 100 µM. The TGI (SF-268 CNS) was over 100 µM, the TGI (OVCAR-4 ovarian) was over 100 µM and the TGI (NCI-H522 lung) was over 100 µM. The TGI (SN12C renal) was over 100 µM.
CCC1=CC2CN3CCc4c([nH]c5ccccc45)C(C(=O)OC)(C2)C13 (centres undefined) gave a TGI (UACC-62 melanoma) of 64 µM, a TGI (OVCAR-3 ovarian) of 107 µM and a TGI (SW-620 colon) of 82.7 µM. For the same compound, the TGI (SF-268 CNS) was 101 µM, the TGI (OVCAR-4 ovarian) was 75.3 µM and the TGI (NCI-H522 lung) was 102 µM. For the same compound, the TGI (SN12C renal) was 89.3 µM.
Compound NCCCNc1nc2ccccc2c2c(=O)c3cc(C(F)(F)F)ccc3sc12 has a GI50 (UACC-62 melanoma) of 1.68 µM, a TGI (UACC-62 melanoma) of 3.09 µM and a GI50 (DU-145 prostate) of 1.82 µM. The TGI (DU-145 prostate) was 3.26 µM, the GI50 (SW-620 colon) was 1.69 µM and the TGI (SW-620 colon) was 3.18 µM. It also gave a GI50 (SN12C renal) of 1.73 µM, a TGI (SN12C renal) of 3.23 µM and a GI50 (BT-549 breast) of 7.3 µM. The TGI (BT-549 breast) was 27.1 µM.
In the case of Cc1[nH]c(=O)nc(N/N=C/c2ccc(Cl)cc2)c1C(=O)NC(C)(CO)CO, the TGI (UACC-62 melanoma) is reported as over 100 µM, the TGI (OVCAR-3 ovarian) is reported as over 100 µM and the TGI (DU-145 prostate) is reported as over 100 µM. For the same compound, the TGI (SW-620 colon) was over 100 µM, the TGI (SF-268 CNS) was over 100 µM and the TGI (OVCAR-4 ovarian) was over 100 µM. It also gave a TGI (SN12C renal) of over 100 µM, a TGI (BT-549 breast) of over 100 µM and a TGI (T-47D breast) of over 100 µM.
CC1(C23CC4CC(CC(C4)C2)C3)n2c(=O)n(-c3ccccc3)c(=O)n2C1(C)C12CC3CC(CC(C3)C1)C2 (centres undefined) gave a TGI (UACC-62 melanoma) of over 100 µM, a TGI (OVCAR-3 ovarian) of over 100 µM and a TGI (DU-145 prostate) of over 100 µM. For the same compound, the TGI (SW-620 colon) was over 100 µM, the TGI (SF-268 CNS) was over 100 µM and the TGI (SN12C renal) was over 100 µM. It also gave a TGI (BT-549 breast) of over 100 µM and a TGI (T-47D breast) of over 100 µM.
In the case of CN1C2CC(=O)CC1[C@H](O)[C@@H]2O, the TGI (OVCAR-3 ovarian) is reported as over 100 µM, the TGI (DU-145 prostate) is reported as over 100 µM and the TGI (SW-620 colon) is reported as over 100 µM. It also gave a TGI (SF-268 CNS) of over 100 µM, a TGI (SN12C renal) of over 100 µM and a TGI (BT-549 breast) of over 100 µM. For the same compound, the TGI (T-47D breast) was over 100 µM.
With CCOC(=O)c1csc(NC(=O)CCN2CCCCC2)n1 the TGI (UACC-62 melanoma) was over 100 µM, the TGI (OVCAR-3 ovarian) was over 100 µM and the TGI (DU-145 prostate) was over 100 µM. The TGI (SW-620 colon) was over 100 µM, the TGI (OVCAR-4 ovarian) was over 100 µM and the TGI (T-47D breast) was over 100 µM.
In the case of COCC1CCCN1c1ccc(/C=C(/C#N)C(N)=S)cc1 (centres undefined), the GI50 (OVCAR-3 ovarian) is reported as over 100 µM, the TGI (OVCAR-3 ovarian) is reported as over 100 µM and the GI50 (DU-145 prostate) is reported as over 100 µM. The TGI (DU-145 prostate) was over 100 µM, the GI50 (SW-620 colon) was 79.4 µM and the TGI (SW-620 colon) was over 100 µM. For the same compound, the GI50 (SF-268 CNS) was over 100 µM, the TGI (SF-268 CNS) was over 100 µM and the GI50 (OVCAR-4 ovarian) was over 100 µM. For the same compound, the TGI (OVCAR-4 ovarian) was over 100 µM, the GI50 (NCI-H522 lung) was 12.7 µM and the TGI (NCI-H522 lung) was 61.4 µM. It also gave a GI50 (SN12C renal) of 30.5 µM, a TGI (SN12C renal) of over 100 µM and a GI50 (BT-549 breast) of over 100 µM. The TGI (BT-549 breast) was over 100 µM, the GI50 (T-47D breast) was 30.6 µM and the TGI (T-47D breast) was over 100 µM.
COc1cc(C2C(Cl)C(=O)N2NC(=O)c2ccccc2O)ccc1O (centres undefined) was tested, and the TGI (UACC-62 melanoma) was over 100 µM, the TGI (OVCAR-3 ovarian) was over 100 µM and the TGI (SF-268 CNS) was over 100 µM. The TGI (NCI-H522 lung) was over 100 µM and the TGI (SN12C renal) was over 100 µM.
